In ChEMBL document CHEMBL3430912, “GSK Tres Cantos Anti-Kinetoplastid Screening (TCAKS) Data”:

What was measured:
[1] = tested on: Trypanosoma brucei brucei; experiment: GSK_TCAKS: pIC50 Trypanosoma brucei viability assay using luminiscence. Assay plates (1536-well) were prepared. T. brucei cultures were harvested and counted in a CASY cell counter. A parasite suspension was prepared at a final concentration of 5 * 10^4 cells/mL in complete HMI9 medium and 6uL was dispensed to all wells containing compounds using a Multidrop Combi dispenser. 6uL of HMI9 media with 0.4% DMSO were dispensed to control columns. Plates were incubated for 24 h at 37C, 5% CO2 then tempered for 10 min at room temperature. ATP content was quantified by adding 4 uL of CellTiter-Glo Reagent (Promega) according to the manufacturer's instructions. Luminescence was measured using a ViewLux.; format: functional, organism-based; conditions: Lister 427, CASY
Leishmania donovani [2] = experiment: GSK_TCAKS: pIC50 Leishmania donovani viability assay using fluorescence intensity. Assay plates (1536-well) were prepared by adding 30nL per well of compound. For single shot assay, the final compound concentration was 5uM. […] Briefly, eGFP LdBOB axenic amastigotes were harvested, fixed and counted in a CASY cell counter (Roche-Applied Science). A final concentration of 1.5 * 10^5 cells per well were prepared in amastigote media containing 500 U/mL penicillin/streptomycin (Invitrogen) and 6uL was dispensed to each experimental well using a Multidrop Combi dispenser (Thermo Scientific). 6uL of assay media was dispensed to control columns used as reference for 100% compound response. Following incubation for 72 h at 37C, 5% CO2, 2 uL of resazurin was added to each well at a final concentration of 0.5 mM in phosphate buffered saline (PBS) with IGEPAL (Sigma-Aldrich), 0.05% (v/v).; format: functional, organism-based
Leishmania donovani [3] = experiment: (§1) GSK_TCAKS: pIC50 Leishmania donovani Imaging: Infected Macrophages. Assay plates (384-well) were prepared by adding 250nL of compound to each well. For single shot assay, the final compound concentration was 5 uM. […] Automated image analysis was performed with a script developed on Acapella High Content Imaging and Analysis Software (PerkinElmer). Output: Percent of infected macrophage cells were reported for each well.; format: functional, organism-based, Homo sapiens; conditions: THP-1
[4] = tested on: Trypanosoma brucei brucei; experiment: GSK_TCAKS: pIC50 Trypanosoma brucei viability assay using fluorescence intensity. Assay plates (1536-well) were prepared by dispensing 25nL of compound solution per well using an Echo acoustic dispenser (Labcyte).; format: functional, organism-based; conditions: Lister 427, 2 h
Leishmania donovani [5] = experiment: as §1, with “Amastigotes/Macrophages.” for “Infected Macrophages.”, “Average number” for “Percent”, “amastigotes per” for “infected”, “cell” for “cells”; format: functional, organism-based, Homo sapiens; conditions: THP-1
Trypanosoma cruzi [6] = experiment: GSK_TCAKS: pIC50 Trypanosoma cruzi Imaging: Amastigotes/Cell. […] Cells were then washed once with PBS before infection. T. cruzi trypomastigotes, collected at days 5 to 8 after infection from LLC-MK2 parasite infected cultures, were allowed to swim out for 4h at 37C from a centrifuged pellet (2,500 rpm/10 min/room temperature). Trypomastigotes were then collected and counted in a CASY Cell Counter. Trypomastigotes, in supplemented DMEM, were added to H9c2 cultures in a multiplicity of infection of 1 and incubated for 18 h. Cells were washed once with PBS before incubation of the infected H9c2 monolayer with trypsin (Life-Technologies) to detach cells from the flask. Cells were counted in a CASY Cell Counter using a 150 um capillary and their density set at 5 * 10^4 cells per mL in supplemented assay DMEM. Infected H9c2 were dispensed into 384-well poly-lysine coated assay plates at 50uL per well using a Multidrop Combi dispenser. After seeding them, the plates were incubated at 37C, 5% CO2 for 72h. Cultures were then fixed and stained by addition of 50 uL of a solution containing 8% formaldehyde and 4 uM DRAQ5 DNA dye (BioStatus, UK) per well. […] Five images were collected per well for reliable statistical analysis. Automated image analysis was performed with a script developed on Acapella High Content Imaging and Analysis Software (PerkinElmer). Output: number of amastigotes per cell as infection level measurement.; format: functional, organism-based, Rattus norvegicus; conditions: H9c2, 4 h
NIH3T3 = experiment: GSK_TCAKS: pIC50 NIH 3T3 cell line viability assay using luminiscence. Tissue culture surface treated assay plates (1536-well) were used. […] The 100% cells survival control was determined exposing the host-cells to a 0.5% DMSO concentration, whereas the 100% toxicity control was achieved by seeding the cells in presence of Amphotericin B at 50uM. Plates were incubated for four days at 37C, 5% CO2. The assay readout was developed by addition of 5uL of CellTiter-Glo Reagent following the manufacturer's instructions. Luminiscence was measured using a ViewLux.; format: functional, cell-based; conditions: Mus musculus, NIH3T3, 96 h
Trypanosoma cruzi [7] = experiment: (§2) GSK_TCAKS: pIC50 Trypanosoma cruzi Imaging: Infected Cells. […] Cells were then washed once with PBS before infection. T. cruzi trypomastigotes, collected at days 5 to 8 after infection from LLC-MK2 parasite infected cultures, were allowed to swim out for 4h at 37C from a centrifuged pellet (2,500 rpm/10 min/room temperature). Trypomastigotes were then collected and counted in a CASY Cell Counter. Trypomastigotes, in supplemented DMEM, were added to H9c2 cultures in a multiplicity of infection of 1 and incubated for 18 h. Cells were washed once with PBS before incubation of the infected H9c2 monolayer with trypsin (Life-Technologies) to detach cells from the flask. Cells were counted in a CASY Cell Counter using a 150 um capillary and their density set at 5 * 10^4 cells per mL in supplemented assay DMEM. Infected H9c2 were dispensed into 384-well poly-lysine coated assay plates at 50uL per well using a Multidrop Combi dispenser. After seeding them, the plates were incubated at 37C, 5% CO2 for 72h. Cultures were then fixed and stained by addition of 50 uL of a solution containing 8% formaldehyde and 4 uM DRAQ5 DNA dye (BioStatus, UK) per well. […] Five images were collected per well for reliable statistical analysis. Automated image analysis was performed with a script developed on Acapella High Content Imaging and Analysis Software (PerkinElmer). Output: percentage of infected cells per well as a second infection marker.; format: functional, organism-based, Rattus norvegicus; conditions: H9c2, 4 h
[8] = biological target: Sterol 14-alpha demethylase (Trypanosoma cruzi (strain CL Brener), UniProt Q7Z1V1); experiment: GSK_TCAKS: pIC50 CYP51 from Trypanosoma cruzi.; format: functional
Trypanosoma cruzi [9] = experiment: GSK_TCAKS: pIC50 Trypanosoma cruzi viability assay using beta-GAL activity. This assay was run at single shot at 5uM compound concentration per well. The biological reagents consisted of NIH-3T3 host cells and trypomastigotes parasitic cells; both cell types were set to a 3.3 * 10^5 cells/mL dilution in assay DMEM by means of a CASY cell counter device using a 60um capillary. 6 uL of the mixture were dispensed per well (about 1 * 10^3 host-cells and 1 * 10^3 parasites) with a Multidrop Combi dispenser. […] In all wells, the percentage of DMSO never exceeded 0.5%. Plates incubated for four days at 37C, 5% CO2. The substrate used for the assay fluorescence intensity (FLINT) readout was resorufin-beta-D-galactopiranoside (Sigma-Aldrich) at 5uM per well. It was diluted in PBS supplemented with the soft detergent Igepal (Fluka).; format: functional, organism-based, Mus musculus; conditions: Tulahuen, NIH3T3
Leishmania donovani [10] = experiment: as §1, with “THP-1 Host” for “Infected”, “THP-1 cell count” for “Percent of infected macrophage cells”; format: functional, organism-based, Homo sapiens
[11] = GSK_TCAKS: pIC50 HepG2 human cell line viability assay using luminiscence. […] Seeding density was checked to ensure that new mono-layers were not more than 50% confluent at the time of harvesting. Cell suspension was added to 500 mL of the same medium at a final density of 1.2 * 10^5 cells/mL. This cell suspension was dispensed (25 uL, 3000 cells per well) into 384-well clear-bottom plates using a Multidrop Combi dispenser. Prior to addition of the cell suspension, the screening compounds (250 nL) were pre-dispensed into the plates with an Echo liquid handler. Plates were incubated for 48 h at 37C, 5% CO2. After incubation, plates equilibrated at room temperature for 30 min before proceeding to develop the luminescent signal. The signal developer, CellTiter-Glo Reagent, was allowed to equilibrate at room temperature for 30 min and added to the plates (25uL per well) using a Multidrop Combi dispenser. Plates were left for 10 min at room temperature for stabilization and then read using a ViewLux.; format: toxicity, cell-based
Trypanosoma cruzi [12] = experiment: as §2, with “H2C9” for “Trypanosoma cruzi”, “H9c2 Host Cardiomyocytes.” for “Infected Cells.”, “Number” for “percentage”, “H9c2 Host Cardiomyocytes nuclei to determine drug-related cytotoxicity.” for “infected cells per well as a second infection marker.”; format: functional, organism-based, Rattus norvegicus; conditions: H9c2, 4 h

Sequence of Sterol 14-alpha demethylase (Q7Z1V1 whole entry): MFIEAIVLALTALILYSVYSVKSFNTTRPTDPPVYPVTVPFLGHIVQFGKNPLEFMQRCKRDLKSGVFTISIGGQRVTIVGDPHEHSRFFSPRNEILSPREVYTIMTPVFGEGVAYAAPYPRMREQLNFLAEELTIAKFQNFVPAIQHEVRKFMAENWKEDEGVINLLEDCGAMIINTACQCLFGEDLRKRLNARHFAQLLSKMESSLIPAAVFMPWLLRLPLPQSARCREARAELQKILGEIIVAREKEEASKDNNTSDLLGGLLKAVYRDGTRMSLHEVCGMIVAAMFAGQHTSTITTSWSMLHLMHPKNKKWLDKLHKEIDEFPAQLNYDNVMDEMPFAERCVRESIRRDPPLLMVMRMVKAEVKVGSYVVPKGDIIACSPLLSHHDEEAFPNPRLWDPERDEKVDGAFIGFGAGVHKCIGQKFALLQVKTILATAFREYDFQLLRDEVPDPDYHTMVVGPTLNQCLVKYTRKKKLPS

With `O=S(=O)(NCC(c1cccnc1)N1CCN(c2ccc(F)cc2)CC1)c1cccs1` (stereo unspecified) the IC50 [1] was over 39.8 µM, the IC50 (Leishmania donovani [2]) was over 50.1 µM and the IC50 (Leishmania donovani [3]) was over 50.1 µM. The IC50 [4] was over 39.8 µM, the IC50 (Leishmania donovani [5]) was over 50.1 µM and the IC50 (Trypanosoma cruzi [6]) was 0.126 µM. It also gave an IC50 (NIH3T3) of over 50.1 µM, an IC50 (Trypanosoma cruzi [7]) of 0.126 µM and an IC50 [8] of 0.0398 µM. It also gave an IC50 (Trypanosoma cruzi [9]) of 0.158 µM, an IC50 (Leishmania donovani [10]) of over 50.1 µM and an IC50 at 48 h [11] of over 100 µM. For the same compound, the IC50 (Trypanosoma cruzi [12]) was over 50.1 µM.

For `Cc1ccc(C)c(-n2nnnc2Sc2nc([N+](=O)[O-])nn2C)c1`, the IC50 [1] was 15.8 µM, the IC50 (Leishmania donovani [2]) was over 50.1 µM and the IC50 (Leishmania donovani [3]) was over 50.1 µM. For the same compound, the IC50 [4] was 12.6 µM, the IC50 (Leishmania donovani [5]) was over 50.1 µM and the IC50 (Trypanosoma cruzi [6]) was 0.251 µM. For the same compound, the IC50 (NIH3T3) was over 50.1 µM, the IC50 (Trypanosoma cruzi [7]) was 0.794 µM and the IC50 [8] was over 100 µM. It also gave an IC50 (Trypanosoma cruzi [9]) of 0.501 µM, an IC50 (Leishmania donovani [10]) of over 50.1 µM and an IC50 at 48 h [11] of over 100 µM. It also gave an IC50 (Trypanosoma cruzi [12]) of over 50.1 µM.

Compound `O=C(Cn1cnc2cc([N+](=O)[O-])ccc2c1=O)NCCc1ccc(Cl)cc1Cl` has an IC50 [1] of over 39.8 µM, an IC50 (Leishmania donovani [2]) of over 50.1 µM and an IC50 (Leishmania donovani [3]) of over 50.1 µM. It also gave an IC50 [4] of 12.6 µM, an IC50 (Leishmania donovani [5]) of over 50.1 µM and an IC50 (Trypanosoma cruzi [6]) of 0.2 µM. For the same compound, the IC50 (NIH3T3) was over 50.1 µM, the IC50 (Trypanosoma cruzi [7]) was 0.398 µM and the IC50 [8] was over 100 µM. The IC50 (Trypanosoma cruzi [9]) was 0.631 µM, the IC50 (Leishmania donovani [10]) was over 50.1 µM and the IC50 at 48 h [11] was over 100 µM. It also gave an IC50 (Trypanosoma cruzi [12]) of over 50.1 µM.

`O=c1ccn(-c2ccc([N+](=O)[O-])cc2Cl)c2ccc(F)cc12` showed an IC50 [1] of over 39.8 µM, an IC50 (Leishmania donovani [2]) of over 50.1 µM and an IC50 (Leishmania donovani [3]) of over 50.1 µM. For the same compound, the IC50 [4] was 25.1 µM, the IC50 (Leishmania donovani [5]) was over 50.1 µM and the IC50 (Trypanosoma cruzi [6]) was 1.26 µM. It also gave an IC50 (NIH3T3) of over 50.1 µM, an IC50 (Trypanosoma cruzi [7]) of 3.98 µM and an IC50 [8] of 15.8 µM. It also gave an IC50 (Trypanosoma cruzi [9]) of 1.58 µM, an IC50 (Leishmania donovani [10]) of over 50.1 µM and an IC50 at 48 h [11] of over 100 µM. The IC50 (Trypanosoma cruzi [12]) was over 50.1 µM.

Compound `CN(C(=O)Nc1ccc2c(c1)CCN(C1CCC1)CC2)c1ccc(C#N)cc1` has an IC50 [1] of 0.631 µM, an IC50 (Leishmania donovani [2]) of 39.8 µM and an IC50 (Leishmania donovani [3]) of over 50.1 µM. It also gave an IC50 [4] of 0.2 µM, an IC50 (Leishmania donovani [5]) of over 50.1 µM and an IC50 (Trypanosoma cruzi [6]) of 2 µM. For the same compound, the IC50 (NIH3T3) was 39.8 µM, the IC50 (Trypanosoma cruzi [7]) was 3.98 µM and the IC50 [8] was over 100 µM. The IC50 (Trypanosoma cruzi [9]) was 2 µM, the IC50 (Leishmania donovani [10]) was over 50.1 µM and the IC50 at 48 h [11] was over 100 µM. It also gave an IC50 (Trypanosoma cruzi [12]) of over 50.1 µM.

With `COc1ccc2nccc([C@H](O)CN3CC[C@H](NC(=O)c4ccc(Br)cc4)[C@@H](O)C3)c2n1` the IC50 [1] was 0.501 µM, the IC50 (Leishmania donovani [2]) was 3.16 µM and the IC50 (Leishmania donovani [3]) was over 50.1 µM. It also gave an IC50 [4] of 0.2 µM, an IC50 (Leishmania donovani [5]) of over 50.1 µM and an IC50 (Trypanosoma cruzi [6]) of 0.158 µM. For the same compound, the IC50 (NIH3T3) was over 50.1 µM, the IC50 (Trypanosoma cruzi [7]) was 1.58 µM and the IC50 [8] was 6.31 µM. For the same compound, the IC50 (Trypanosoma cruzi [9]) was 0.251 µM, the IC50 (Leishmania donovani [10]) was over 50.1 µM and the IC50 at 48 h [11] was over 100 µM. For the same compound, the IC50 (Trypanosoma cruzi [12]) was 2 µM.

Work on `O=C(Nc1cccc(Cl)c1)N1CCCCC1c1cccnc1` (stereo unspecified) yielded an IC50 [1] of over 39.8 µM, an IC50 (Leishmania donovani [2]) of 3.16 µM and an IC50 (Leishmania donovani [3]) of over 50.1 µM. It also gave an IC50 [4] of over 39.8 µM, an IC50 (Leishmania donovani [5]) of over 50.1 µM and an IC50 (Trypanosoma cruzi [6]) of 0.2 µM. It also gave an IC50 (NIH3T3) of 31.6 µM, an IC50 (Trypanosoma cruzi [7]) of 0.2 µM and an IC50 [8] of 0.02 µM. It also gave an IC50 (Trypanosoma cruzi [9]) of 0.178 µM, an IC50 (Leishmania donovani [10]) of over 50.1 µM and an IC50 at 48 h [11] of over 100 µM. It also gave an IC50 (Trypanosoma cruzi [12]) of over 50.1 µM.
